From the NIST ThermoML archive (doi:10.1021/je020138s)
± gives the expanded uncertainty stated by the source.

Legend:
[1] = excess molar enthalpy (molar enthalpy of mixing); xn = mol fraction of the nth substance listed; conditions: 101 kPa, Liquid, Calvet calorimetry
[2] = xn = mol fraction of the nth substance listed; conditions: 308.15 K, 101 kPa, Liquid

An excess molar enthalpy ([1]; 308.15 K, x1 = 0.1345) of 0.172 ± 0.00215 kcal/mol, an excess molar enthalpy ([1]; 308.15 K, x1 = 0.1898) of 0.187 ± 0.00239 kcal/mol and an excess molar enthalpy ([1]; 308.15 K, x1 = 0.2658) of 0.198 ± 0.00263 kcal/mol were found for CCCCCCCCO [octan-1-ol] + CCCCCCCCCCCC in this work. The excess molar enthalpy ([1]; 308.15 K, x1 = 0.3122) was 0.2 ± 0.00263 kcal/mol, the excess molar enthalpy ([1]; 308.15 K, x1 = 0.4077) was 0.199 ± 0.00263 kcal/mol and the excess molar enthalpy ([1]; 308.15 K, x1 = 0.4433) was 0.196 ± 0.00239 kcal/mol. It also gave an excess molar enthalpy ([1]; 308.15 K, x1 = 0.4591) of 0.194 ± 0.00239 kcal/mol, an excess molar enthalpy ([1]; 308.15 K, x1 = 0.5302) of 0.186 ± 0.00239 kcal/mol and an excess molar enthalpy ([1]; 308.15 K, x1 = 0.5667) of 0.179 ± 0.00239 kcal/mol. For the same molecule, the excess molar enthalpy ([1]; 308.15 K, x1 = 0.6587) was 0.158 ± 0.00215 kcal/mol, the excess molar enthalpy ([1]; 308.15 K, x1 = 0.6595) was 0.16 ± 0.00215 kcal/mol and the excess molar enthalpy ([1]; 308.15 K, x1 = 0.7509) was 0.126 ± 0.00167 kcal/mol. For the same molecule, the excess molar enthalpy ([1]; 308.15 K, x1 = 0.7661) was 0.12 ± 0.00167 kcal/mol, the excess molar enthalpy ([1]; 308.15 K, x1 = 0.8263) was 0.0932 ± 0.0012 kcal/mol and the excess molar enthalpy ([1]; 308.15 K, x1 = 0.8566) was 0.0782 ± 0.000956 kcal/mol. For the same molecule, the excess molar enthalpy ([1]; 308.15 K, x1 = 0.8983) was 0.0574 ± 0.000717 kcal/mol, the excess molar enthalpy ([1]; 308.15 K, x1 = 0.9353) was 0.0366 ± 0.000478 kcal/mol and the excess molar enthalpy ([1]; 308.15 K, x1 = 0.97) was 0.017 ± 0.000478 kcal/mol.
An excess molar enthalpy ([1]; 308 K, x1 = 0.0894) of 0.0705 ± 0.000956 kcal/mol, an excess molar enthalpy ([1]; 308 K, x1 = 0.1261) of 0.0937 ± 0.0012 kcal/mol and an excess molar enthalpy ([1]; 308 K, x1 = 0.1734) of 0.123 ± 0.00167 kcal/mol were found for CCCCOC(=O)CCC [butyl butanoate] + CCCCCCCCCCCC in this work. The excess molar enthalpy ([1]; 308 K, x1 = 0.205) was 0.137 ± 0.00167 kcal/mol, the excess molar enthalpy ([1]; 308 K, x1 = 0.2668) was 0.165 ± 0.00215 kcal/mol and the excess molar enthalpy ([1]; 308 K, x1 = 0.3014) was 0.176 ± 0.00215 kcal/mol. For the same molecule, the excess molar enthalpy ([1]; 308 K, x1 = 0.326) was 0.183 ± 0.00239 kcal/mol, the excess molar enthalpy ([1]; 308 K, x1 = 0.3509) was 0.188 ± 0.00239 kcal/mol and the excess molar enthalpy ([1]; 308 K, x1 = 0.4179) was 0.203 ± 0.00263 kcal/mol. The excess molar enthalpy ([1]; 308 K, x1 = 0.4544) was 0.208 ± 0.00263 kcal/mol, the excess molar enthalpy ([1]; 308 K, x1 = 0.517) was 0.207 ± 0.00263 kcal/mol and the excess molar enthalpy ([1]; 308 K, x1 = 0.5526) was 0.207 ± 0.00263 kcal/mol. The excess molar enthalpy ([1]; 308 K, x1 = 0.6779) was 0.186 ± 0.00239 kcal/mol, the excess molar enthalpy ([1]; 308 K, x1 = 0.7202) was 0.174 ± 0.00215 kcal/mol and the excess molar enthalpy ([1]; 308 K, x1 = 0.8233) was 0.128 ± 0.00167 kcal/mol. The excess molar enthalpy ([1]; 308 K, x1 = 0.8287) was 0.125 ± 0.00167 kcal/mol, the excess molar enthalpy ([1]; 308 K, x1 = 0.9006) was 0.0808 ± 0.0012 kcal/mol and the excess molar enthalpy ([1]; 308 K, x1 = 0.9307) was 0.0574 ± 0.000717 kcal/mol. It also gave an excess molar volume ([2]; x1 = 0.086) of 2.25e-07 ± 1.6e-08 m3/mol, an excess molar volume ([2]; x1 = 0.1642) of 4.085e-07 ± 1.7e-08 m3/mol and an excess molar volume ([2]; x1 = 0.2326) of 4.99e-07 ± 1.8e-08 m3/mol. The excess molar volume ([2]; x1 = 0.3151) was 5.957e-07 ± 1.8e-08 m3/mol, the excess molar volume ([2]; x1 = 0.4238) was 6.386e-07 ± 1.9e-08 m3/mol and the excess molar volume ([2]; x1 = 0.4435) was 6.409e-07 ± 1.9e-08 m3/mol. For the same molecule, the excess molar volume ([2]; x1 = 0.5057) was 6.525e-07 ± 1.9e-08 m3/mol, the excess molar volume ([2]; x1 = 0.5458) was 6.501e-07 ± 1.9e-08 m3/mol and the excess molar volume ([2]; x1 = 0.6564) was 5.883e-07 ± 1.8e-08 m3/mol. The excess molar volume ([2]; x1 = 0.6617) was 5.83e-07 ± 1.8e-08 m3/mol, the excess molar volume ([2]; x1 = 0.6962) was 5.604e-07 ± 1.8e-08 m3/mol and the excess molar volume ([2]; x1 = 0.7365) was 5.311e-07 ± 1.8e-08 m3/mol. For the same molecule, the excess molar volume ([2]; x1 = 0.7625) was 4.759e-07 ± 1.8e-08 m3/mol, the excess molar volume ([2]; x1 = 0.7821) was 4.581e-07 ± 1.8e-08 m3/mol and the excess molar volume ([2]; x1 = 0.8186) was 4.073e-07 ± 1.7e-08 m3/mol. The excess molar volume ([2]; x1 = 0.8623) was 3.308e-07 ± 1.7e-08 m3/mol and the excess molar volume ([2]; x1 = 0.9593) was 1.15e-07 ± 1.6e-08 m3/mol.
